In article PMC9040849 (RSC Advances, 2021):

Experiments:
[1] = tested on: influenza A/Puerto Rico/8/34 H1N1 (PR8) virus; experiment: microbe, parasite or virus in culture; assay type: cell-based; details: for SI (selectivity index, ratio of the CC50 to the IC50): A549 cells, PR8; for IC50: Influenza A virus, H1N1|PR8, A549, 24 h
[2] = in vitro; details: human

Row | Structure (SMILES) | SI (selectivity index, ratio of the CC50 to the IC50) [1] | IC50 [1] | CC50 [2] | expression of HA on infected monolayers (RFU % vs untreated infected cells) [1]
1 | COC(=O)Cn1c(C)nc2c(=O)[nH]cnc21 [Compound 6a, Methyl 2-(8-methyl-6-oxo-1,6-dihydro-9H-purin-9-yl)acetate] | 0.3 | 6960 nM | 2110 nM | –
2 | Cc1nc2c(=O)[nH]cnc2n1C(Cc1ccccc1)C(=O)O (stereo not shown) [Compound 7e, 2-(8-Methyl-6-oxo-1,6-dihydro-9H-purin-9-yl)-3-phenylpropanoic acid] | – | – | 6350 nM | –
3 | COC(=O)C(Cc1ccccc1)n1c(C)nc2c(=O)[nH]cnc21 (stereo not shown) [Compound 6e, Methyl 2-(8-methyl-6-oxo-1,6-dihydro-9H-purin-9-yl)-3-phenylpropanoate] | 0.3 | 1870 nM | 510 nM | –
4 | Cc1nc(C#N)c(N)n1C(Cc1ccc(O)cc1)C(=O)O (stereo not shown) [Compound 5f, 2-(5-Amino-4-cyano-2-methyl-1H-imidazol-1-yl)-3-(4-hydroxyphenyl)propanoic acid] | 0.45 | 1990 nM | 900 nM | –
5 | Cc1nc(C#N)c(N)n1CC(=O)O [Compound 5a, 2-(5-Amino-4-cyano-2-methyl-1H-imidazol-1-yl)acetic acid] | – | 760 nM | 2200 nM | decreased
6 | Cc1nc2c(=O)[nH]cnc2n1C(C)C(=O)O (stereo not shown) [Compound 7b, 2-(8-Methyl-6-oxo-1,6-dihydro-9H-purin-9-yl)propanoic acid] | – | 1850 nM | 2860 nM | –
7 | COC(=O)C(C)n1c(C)nc(C#N)c1N (stereo not shown) [Compound 4b, Methyl 2-(5-amino-4-cyano-2-methyl-1H-imidazol-1-yl)propanoate] | – | 760 nM | 2750 nM | –
8 | Cc1nc2c(=O)[nH]cnc2n1CC(=O)O [Compound 7a, 2-(8-Methyl-6-oxo-1,6-dihydro-9H-purin-9-yl)acetic acid] | 0.84 | 890 nM | 750 nM | –
9 | COC(=O)C(Cc1ccc(O)cc1)n1c(C)nc2c(=O)[nH]cnc21 (stereo not shown) [Compound 6f, Methyl 3-(4-hydroxyphenyl)-2-(8-methyl-6-oxo-1,6-dihydro-9H-purin-9-yl)propanoate] | – | 480 nM | 800 nM | –
10 | Cc1nc2c(=O)[nH]cnc2n1C(CO)C(=O)O (stereo not shown) [Compound 7d, 3-Hydroxy-2-(8-methyl-6-oxo-1,6-dihydro-9H-purin-9-yl)propanoic acid] | – | – | 6110 nM | –
11 | COC(=O)C(Cc1ccc(O)cc1)n1c(C)nc(C#N)c1N (stereo not shown) [Compound 4f, Methyl 2-(5-amino-4-cyano-2-methyl-1H-imidazol-1-yl)-3-(4-hydroxyphenyl)propanoate] | 0.5 | 3200 nM | 1450 nM | –
12 | COC(=O)Cn1c(C)nc(C#N)c1N [Compound 4a, Methyl 2-(5-amino-4-cyano-2-methyl-1H-imidazol-1-yl)acetate] | – | – | 1020 nM | –
13 | COC(=O)C(C)n1c(C)nc2c(=O)[nH]cnc21 (stereo not shown) [Compound 6b, Methyl 2-(8-methyl-6-oxo-1,6-dihydro-9H-purin-9-yl)propanoate] | – | – | 470 nM | –
14 | COC(=O)C(CO)n1c(C)nc(C#N)c1N (stereo not shown) [Compound 4d, Methyl 2-(5-amino-4-cyano-2-methyl-1H-imidazol-1-yl)-3-hydroxypropanoate] | – | 680 nM | 1990 nM | –
15 | COC(=O)C(C(C)C)n1c(C)nc2c(=O)[nH]cnc21 (stereo not shown) [Compound 6c, Methyl 3-methyl-2-(8-methyl-6-oxo-1,6-dihydro-9H-purin-9-yl)butanoate] | – | 180 nM | 310 nM | –
16 | COC(=O)C(CO)n1c(C)nc2c(=O)[nH]cnc21 (stereo not shown) [Compound 6d, Methyl 3-hydroxy-2-(8-methyl-6-oxo-1,6-dihydro-9H-purin-9-yl)propanoate] | – | – | 930 nM | –
17 | COC(=O)C(Cc1ccccc1)n1c(C)nc(C#N)c1N (stereo not shown) [Compound 4e, Methyl 2-(5-amino-4-cyano-2-methyl-1H-imidazol-1-yl)-3-phenylpropanoate] | – | 390 nM | 840 nM | –
18 | Cc1nc(C#N)c(N)n1C(C(=O)O)C(C)C (stereo not shown) [Compound 5c, 2-(5-Amino-4-cyano-2-methyl-1H-imidazol-1-yl)-3-methylbutanoic acid] | 0.8 | 830 nM | 620 nM | –
19 | Cc1nc(C#N)c(N)n1C(Cc1ccccc1)C(=O)O (stereo not shown) [Compound 5e, 2-(5-Amino-4-cyano-2-methyl-1H-imidazol-1-yl)-3-phenylpropanoic acid] | – | 460 nM | 3360 nM | –
20 | Cc1nc2c(=O)[nH]cnc2n1C(C(=O)O)C(C)C (stereo not shown) [Compound 7c, 3-Methyl-2-(8-methyl-6-oxo-1,6-dihydro-9H-purin-9-yl)butanoic acid] | – | 590 nM | 1090 nM | decreased
21 | COC(=O)C(C(C)C)n1c(C)nc(C#N)c1N (stereo not shown) [Compound 4c, Methyl 2-(5-amino-4-cyano-2-methyl-1H-imidazol-1-yl)-3-methylbutanoate] | 0.5 | 2410 nM | 1130 nM | –
22 | Cc1nc(C#N)c(N)n1C(C)C(=O)O (stereo not shown) [Compound 5b, 2-(5-Amino-4-cyano-2-methyl-1H-imidazol-1-yl)propanoic acid] | 1 | 3000 nM | 2910 nM | –
